Assay [1] deals with Vibrio harveyi BB170 strain. In words: AI-2 reporter bioassay: photogenesis intensity of Vibrio harveyi BB170 reporter bacterium. The class given is cell-based. The procedure:
An HMF authentic preparation (SIGMA) and a DPD authentic preparation (examination of synthesis was requested to OMM Scientific, and a product synthesized by the company was purchased) were added at a final concentration of 0.001 to 1000 μM to a Vibrio harveyi BB170 strain (purchased from ATCC, cultured under aerobic conditions at 30° C. in a marine medium (manufactured by Difco)) used as an autoinducer-2 (AI-2) reporter bacterium. The photogenesis intensity as the index of the AI-2 activity was measured in the same way as in Keersmaecker S. C. J. et al., J. Biol. Chem., 280(20), pp. 19563-19568, 2005. Namely, the Vibrio harveyi BB170 strain was diluted to 5000-fold as a final concentration with an AB medium (for example, see Bassler et al., Mol. Microbiol., 9, pp. 773-786, 1993), and the reporter bacterium liquid and the authentic preparations were mixed at a volume ratio of 9:1, followed by culturing with aerobic shaking at 30° C. Four hours later, the photogenesis intensity was measured using a chemiluminescence analyzer (Berthold, Mitharas LB940 (product name), detecting chemiluminescence). FIG. 1 illustrates a correlation between the concentrations of the HMF authentic preparation and DPD authentic preparation, and the photogenesis intensity. The HMF authentic preparation and DPD authentic preparation were prepared in glass containers. […]

Assay [2] concerns Vibrio harveyi BB170 strain. The conditions noted are these: Keersmaecker et al.; reporter strain of Vibrio harveyi; activity detected at considerably higher concentration than DPD; cited from earlier work.
A further assay has as its system AI-2. The conditions noted are these: Niu C. et al., Lett. Appl. Microbiol. 2006; cited from earlier work.

Turning to `CC1=C(O)C(=O)CO1` [HMF, 4-hydroxy-5-methyl-3(2H)-furanone], the “HMF concentration detectable in the bioassay” value in assay [1] (calibration curve prepared using glass containers) is not above 0.1 µM. The “HMF-induced photogenesis intensity of the reporter bacterium compared with autoinducer-2” value in assay [1] (reporter bacterium light emission) is “lower than the photogenesis intensity induced by autoinducer-2”. Moreover, in assay [2], the autoinducer-2 activity entry is recorded as “has an autoinducer-2 activity”.

As to `O=CC=Cc1ccccc1` [Cinnamaldehyde, 3-phenyl-2-propenal], the AI-2-inhibiting activity entry in the assay on AI-2 is given as “having an AI-2-inhibiting activity”.

(Values after patent US8846327B2, “Method of quantifying autoinducer-2” (priority 2007, dated 2014).)
